Source: US20260124222A1, “ISOTHIAZOLYLCARBOXAMIDE COMPOUNDS AND THEIR USE IN THERAPY” (HOTSPOT THERAPEUTICS, INC., priority 2022, published 2026)

These compounds were tested against T1, Avi-tagged FL MALT-1 (Homo sapiens, UniProt Q9UDY8) (assay: MALT-1 Fluorogenic Peptide Cleavage Assay (MALT1 inhibition assay)). Conditions: Ac-LRSR-AMC peptide substrate; 30 min pre-incubation, 90 min reaction at room temperature; fluorescence.
T1 construct: Avi-tagged FL MALT-1 (Pharmaron, stored at −70° C.); Avi-tag; purchased Pharmaron
T1 sequence (Q9UDY8 1-824): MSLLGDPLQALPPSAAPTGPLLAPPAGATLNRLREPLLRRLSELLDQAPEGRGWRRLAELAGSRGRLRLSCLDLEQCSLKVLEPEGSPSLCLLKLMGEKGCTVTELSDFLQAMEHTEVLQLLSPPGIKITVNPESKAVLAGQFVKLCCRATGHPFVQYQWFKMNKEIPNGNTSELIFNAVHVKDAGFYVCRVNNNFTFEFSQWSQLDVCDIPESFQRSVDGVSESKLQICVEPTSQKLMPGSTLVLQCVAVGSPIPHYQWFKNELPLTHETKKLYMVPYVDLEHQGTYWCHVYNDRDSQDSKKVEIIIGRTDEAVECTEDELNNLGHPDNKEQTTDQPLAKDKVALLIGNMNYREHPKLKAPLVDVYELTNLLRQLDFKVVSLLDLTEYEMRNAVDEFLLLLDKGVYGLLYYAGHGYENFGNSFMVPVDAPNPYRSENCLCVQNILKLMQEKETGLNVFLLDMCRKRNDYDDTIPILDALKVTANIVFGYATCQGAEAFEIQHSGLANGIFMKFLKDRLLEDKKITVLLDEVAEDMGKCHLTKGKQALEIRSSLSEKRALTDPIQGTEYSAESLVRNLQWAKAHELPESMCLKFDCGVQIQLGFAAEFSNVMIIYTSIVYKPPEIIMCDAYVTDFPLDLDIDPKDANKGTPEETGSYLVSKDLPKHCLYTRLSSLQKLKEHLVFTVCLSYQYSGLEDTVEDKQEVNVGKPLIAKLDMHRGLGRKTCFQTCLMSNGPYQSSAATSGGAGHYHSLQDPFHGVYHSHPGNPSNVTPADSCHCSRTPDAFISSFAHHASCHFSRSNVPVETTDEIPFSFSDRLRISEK
Format: biochemical
Method in brief: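 Full-length Avi-tagged enzyme preincubated 30 min at room temperature with compound (2% DMSO final) in HEPES pH 6.89 buffer with sodium citrate, TCEP, EDTA and CHAPS. Ac-LRSR-AMC substrate added at Km or 10×Km (working stocks 50 or […] μM); fluorescence (ex 342/em 441 nm) after 90 min; IC50 from sigmoidal fit.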

Row | Compound | IC50
1 | Cc1cncc(-c2nsc(C(=O)Nc3ccnc(C(F)(F)F)c3)c2C2CC2)c1 [I-167, 4-cyclopropyl-3-(5-methylpyridin-3-yl)-N-(2-(trifluoromethyl)pyridin-4-yl)isothiazole-5-carboxamide] | 400 to 1000 nM
2 | Cn1ncc2cc(-c3nsc(C(=O)Nc4ccnc(C(F)(F)F)c4)c3C3CC3)ccc21 [I-168, 4-cyclopropyl-3-(1-methyl-1H-indazol-5-yl)-N-(2-(trifluoromethyl)pyridin-4-yl)isothiazole-5-carboxamide] | 400 to 1000 nM
3 | O=C(Nc1ccnc(C(F)(F)F)c1)c1snc(-c2ccc3cn[nH]c3c2)c1C1CC1 [I-169, 4-cyclopropyl-3-(1H-indazol-6-yl)-N-(2-(trifluoromethyl)pyridin-4-yl)isothiazole-5-carboxamide] | ≤ 400 nM
4 | COc1ccncc1-c1nsc(C(=O)Nc2ccnc(C(F)(F)F)c2)c1C1CC1 [I-170, 4-cyclopropyl-3-(4-methoxypyridin-3-yl)-N-(2-(trifluoromethyl)pyridin-4-yl)isothiazole-5-carboxamide] | ≤ 400 nM
5 | Cc1ncccc1-c1nsc(C(=O)Nc2ccnc(C(F)(F)F)c2)c1C1CC1 [I-171, 4-cyclopropyl-3-(2-methylpyridin-3-yl)-N-[2-(trifluoromethyl)pyridin-4-yl]-1,2-thiazole-5-carboxamide] | ≤ 400 nM
6 | O=C(Nc1ccnc(C(F)(F)F)c1)c1snc(-c2ccc(F)cc2)c1C1CC1 [I-172, 4-cyclopropyl-3-(4-fluorophenyl)-N-[2-(trifluoromethyl)pyridin-4-yl]-1,2-thiazole-5-carboxamide] | ≤ 400 nM
7 | O=C(Nc1ccnc(C(F)(F)F)c1)c1snc(-c2cccc(C(F)F)c2)c1C1CC1 [I-174, 4-cyclopropyl-3-[3-(difluoromethyl)phenyl]-N-[2-(trifluoromethyl)pyridin-4-yl]-1,2-thiazole-5-carboxamide] | ≤ 400 nM
8 | Cn1ccc2c(-c3nsc(C(=O)Nc4ccnc(C(F)(F)F)c4)c3C3CC3)ccnc21 [I-175, 4-cyclopropyl-3-{1-methylpyrrolo[2,3-b]pyridin-4-yl}-N-[2-(trifluoromethyl)pyridin-4-yl]-1,2-thiazole-5-carboxamide] | ≤ 400 nM
9 | CNC(=O)c1ccc(-c2nsc(C(=O)Nc3ccnc(C(F)(F)F)c3)c2C2CC2)cc1 [I-176, 4-cyclopropyl-3-[4-(methylcarbamoyl)phenyl]-N-[2-(trifluoromethyl)pyridin-4-yl]-1,2-thiazole-5-carboxamide] | 1000 to 2500 nM
10 | N#Cc1cc(NC(=O)c2snc(-c3cccc4ncccc34)c2C2CC2)ccc1C(=O)N1CC(O)C1 [I-180, N-(3-cyano-4-(3-hydroxyazetidine-1-carbonyl)phenyl)-4-cyclopropyl-3-(quinolin-5-yl)isothiazole-5-carboxamide] | ≤ 400 nM
11 | Cn1cc(-c2nsc(C(=O)Nc3ccnc(C(F)(F)F)c3)c2C2CC2)cn1 [I-181, 4-cyclopropyl-3-(1-methyl-1H-pyrazol-4-yl)-N-(2-(trifluoromethyl)pyridin-4-yl)isothiazole-5-carboxamide] | 1000 to 2500 nM
12 | O=C(Nc1ccnc(C(F)(F)F)c1)c1snc(-c2cccc3[nH]ncc23)c1C1CC1 [I-182, 4-cyclopropyl-3-(1H-indazol-4-yl)-N-(2-(trifluoromethyl)pyridin-4-yl)isothiazole-5-carboxamide] | ≤ 400 nM
13 | O=C(Nc1ccnc(C(F)(F)F)c1)c1snc(-c2ccncc2)c1C1CC1 [I-184, 4-cyclopropyl-3-(pyridin-4-yl)-N-(2-(trifluoromethyl)pyridin-4-yl)isothiazole-5-carboxamide] | ≤ 400 nM
14 | O=C(Nc1ccnc(C(F)(F)F)c1)c1snc(-c2ccn3ccnc3c2)c1C1CC1 [I-185, 4-cyclopropyl-3-(imidazo[1,2-a]pyridin-7-yl)-N-(2-(trifluoromethyl)pyridin-4-yl)isothiazole-5-carboxamide] | 1000 to 2500 nM
15 | O=C(Nc1ccnc(C(F)(F)F)c1)c1snc(-c2c(Cl)cncc2Cl)c1C1CC1 [I-187, 4-cyclopropyl-3-(3,5-dichloropyridin-4-yl)-N-(2-(trifluoromethyl)pyridin-4-yl)isothiazole-5-carboxamide] | ≤ 400 nM
16 | N#Cc1cc(NC(=O)c2snc(-c3cccc4c(=O)[nH]ccc34)c2C2CC2)cnc1-n1nccn1 [I-188, N-(5-cyano-6-(2H-1,2,3-triazol-2-yl)pyridin-3-yl)-4-cyclopropyl-3-(1-oxo-1,2-dihydroisoquinolin-5-yl)isothiazole-5-carboxamide] | ≤ 400 nM
17 | CNC(=O)c1cccc(-c2nsc(C(=O)Nc3ccnc(C(F)(F)F)c3)c2C2CC2)c1 [I-193, 4-cyclopropyl-3-(3-(methylcarbamoyl)phenyl)-N-(2-(trifluoromethyl)pyridin-4-yl)isothiazole-5-carboxamide] | 400 to 1000 nM
18 | O=C(Nc1ccnc(C(F)(F)F)c1)c1snc(-c2ccc3cncn3c2)c1C1CC1 [I-194, 4-cyclopropyl-3-(imidazo[1,5-a]pyridin-6-yl)-N-(2-(trifluoromethyl)pyridin-4-yl)isothiazole-5-carboxamide] | ≤ 400 nM
19 | O=C(Nc1ccnc(C(F)(F)F)c1)c1snc(-c2cccc(F)c2)c1C1CC1 [I-195, 4-cyclopropyl-3-(3-fluorophenyl)-N-[2-(trifluoromethyl)pyridin-4-yl]-1,2-thiazole-5-carboxamide] | ≤ 400 nM
20 | Cc1cc(NC(=O)c2snc(-c3ccccc3)c2C2CC2)ccn1 [I-196, 4-cyclopropyl-N-(2-methylpyridin-4-yl)-3-phenylisothiazole-5-carboxamide] | ≤ 400 nM

More lines, now with the values ahead:

Row | IC50 | Compound
21 | ≤ 400 nM | O=C(Nc1ccnc(C(F)(F)F)c1)c1snc(-c2cccnc2)c1C1CC1 [I-165, 4-cyclopropyl-3-(pyridin-3-yl)-N-(2-(trifluoromethyl)pyridin-4-yl)isothiazole-5-carboxamide]
22 | ≤ 400 nM | O=C(Nc1ccnc(C(F)(F)F)c1)c1snc(-c2ccc3[nH]ncc3c2)c1C1CC1 [I-166, 4-cyclopropyl-3-(1H-indazol-5-yl)-N-(2-(trifluoromethyl)pyridin-4-yl)isothiazole-5-carboxamide]
23 | ≤ 400 nM | Cc1ccncc1-c1nsc(C(=O)Nc2ccnc(C(F)(F)F)c2)c1C1CC1 [I-173, 4-cyclopropyl-3-(4-methylpyridin-3-yl)-N-(2-(trifluoromethyl)pyridin-4-yl)isothiazole-5-carboxamide]
24 | ≤ 400 nM | O=C(Nc1ccnc(C(F)(F)F)c1)c1snc(-c2cncc3ccccc23)c1C1CC1 [I-177, 4-cyclopropyl-3-(isoquinolin-4-yl)-N-(2-(trifluoromethyl)pyridin-4-yl)isothiazole-5-carboxamide]
25 | ≤ 400 nM | Cc1cccc(-c2nsc(C(=O)Nc3ccnc(C(F)(F)F)c3)c2C2CC2)c1 [I-178, 4-cyclopropyl-3-(3-methylphenyl)-N-[2-(trifluoromethyl)pyridin-4-yl]-1,2-thiazole-5-carboxamide]
26 | ≤ 400 nM | Cc1c(-c2nsc(C(=O)Nc3ccnc(C(F)(F)F)c3)c2C2CC2)cnn1C [I-183, 4-cyclopropyl-3-(1,5-dimethyl-1H-pyrazol-4-yl)-N-(2-(trifluoromethyl)pyridin-4-yl)isothiazole-5-carboxamide]
27 | ≤ 400 nM | O=C(Nc1ccnc(C(F)(F)F)c1)c1snc(-c2ccc3nccn3c2)c1C1CC1 [I-186, 4-cyclopropyl-3-{imidazo[1,2-a]pyridin-6-yl}-N-[2-(trifluoromethyl)pyridin-4-yl]-1,2-thiazole-5-carboxamide]
28 | ≤ 400 nM | O=C(Nc1ccnc(C(F)(F)F)c1)c1snc(-c2cccc3c(=O)[nH]ccc23)c1C1CC1 [I-189, 4-cyclopropyl-3-(1-oxo-1,2-dihydroisoquinolin-5-yl)-N-(2-(trifluoromethyl)pyridin-4-yl)isothiazole-5-carboxamide]
29 | ≤ 400 nM | O=C(Nc1ccc(C(=O)N2CC(O)C2)c(Cl)c1)c1snc(-c2cccc3nccn23)c1C1CC1 [I-190, N-(3-chloro-4-(3-hydroxyazetidine-1-carbonyl)phenyl)-4-cyclopropyl-3-(imidazo[1,2-a]pyridin-5-yl)isothiazole-5-carboxamide]
30 | ≤ 400 nM | Cc1cc(-c2nsc(C(=O)Nc3ccnc(C(F)(F)F)c3)c2C2CC2)ccn1 [I-191, 4-cyclopropyl-3-(2-methylpyridin-4-yl)-N-(2-(trifluoromethyl)pyridin-4-yl)isothiazole-5-carboxamide]
31 | ≤ 400 nM | O=C(Nc1ccnc(C(F)(F)F)c1)c1snc(-c2cnccc2F)c1C1CC1 [I-192, 4-cyclopropyl-3-(4-fluoropyridin-3-yl)-N-(2-(trifluoromethyl)pyridin-4-yl)isothiazole-5-carboxamide]
